# Like-named read-outs stand apart in the source and are kept apart here.
# Experiment: Plasma toxicokinetics after single i.v. bolus
# Format: in vivo, Sprague-Dawley rats
# Settings: for concentration at 0.5 h / concentration at 1 h / concentration at 2 h / concentration at 4 h / concentration at 6 h / concentration at 8 h / AUC(0-inf) / MRT / Vd / half-life: Sprague-Dawley, rat, plasma; for concentration at 0.5 h / concentration at 1 h / concentration at 2 h / concentration at 4 h / concentration at 6 h / concentration at 8 h: intravenous, read-out: Avg. Conc. rat plasma; for AUC(0-inf) / MRT / Vd / half-life: iv; for half-life: read-out: t1/2 (converted)
# Method: Six rats (3 males and 3 females) were dosed per dose group. […] Plasma and brain homogenates were stored at −80° C. until analysis.
# An additional 48 rats (24 males and 24 females) received a single intravenous dose via the tail vein at the same doses as mentioned above. At 30 and 360 minutes post administration, 6 rats (3 males and 3 females) per dose group, per time point were euthanized, bled via cardiac puncture, and perfused, and brains were collected. The brains were homogenized. Blood was spun, and plasma was collected. Plasma and brain homogenate were stored at −80° C.
# Four aliquots of each dose level formulation were collected and stored at −80° C. The test compound, corresponding dose level, number of animals, and sample collection times for Phase I of the study are shown in Table 3. The test compound, corresponding dose level, number of animals, and sample collection times for Phase II of the study are shown in Table 4. The physical signs of each animal were monitored following administration of the test compound.
# The animals were weighed prior to dosing and received a single i.v. dose of either test compound at a volume of 5 mL/kg. Blood was collected via the venus plexus (retro-orbital) into tubes containing (K2) EDTA. No more than 0.5 mL was collected per time point. […] The brain was removed, weighed, homogenized in sterile 0.9% saline at a volume equal to its weight, and stored at −80° C.
# Plasma was separated according to the instructions for MICROTAINER® brand collection tubes (3 minutes, 2000×g). Plasma was decanted into microfuge tubes and stored at −80° C. Remaining test compound was stored at −80° C.
# The signal was optimized for each compound by electrospray ionization (ESI) positive or negative ionization mode. A single ion mode (SIM) scan was used to optimize the Fragmentor for the precursor ion and a product ion analysis was used to identify the best fragment for analysis and to optimize the collision energy. The fragment which gave the most sensitive and specific signal was chosen.
# Sample preparation. […] The amount of the test agent in the supernatant was determined by liquid chromatography tandem mass spectrometry (LC/MS/MS).
# Analysis. Samples were analyzed by LC/MS/MS using an Agilent 6410 mass spectrometer coupled with an Agilent 1200 high pressure liquid chromatography (HPLC) and a CTC PAL chilled autosampler, all controlled by MassHunter software (Agilent). After separation on a hydrophilic interaction liquid chromatography (HILIC) HPLC column (Sepax) using an acetonitrile-ammonium acetate/acetic acid gradient system, peaks were analyzed by mass spectrometry (MS) using ESI ionization in multiple reaction monitoring (MRM) mode. MassHunter software was used to calculate the concentration of the test compounds in samples from the peak area using the appropriate calibration curves.
# Calibration samples. Calibration curves were determined for both rat plasma and brain homogenate. Calibration samples were prepared by diluting a 50× stock solution of the test compound in PBS with blank matrix to the appropriate concentration and these samples were prepared as described above in the sample preparation.
# [1] = female, 0.1 mg/kg, Anatabine 0.1 mg/kg, female
# [2] = female, 0.75 mg/kg, Anatabine 0.75 mg/kg, female
# [3] = female, 1 mg/kg, Anatabine 1.0 mg/kg, female
# [4] = male, 0.1 mg/kg, Anatabine 0.1 mg/kg, male
# [5] = male, 0.75 mg/kg, Anatabine 0.75 mg/kg, male
# [6] = male, 1 mg/kg, Anatabine 1.0 mg/kg, male
smiles,measurement,setting,value
"C1=CCC(c2cccnc2)NC1 (racemic) [Anatabine, 1,2,3,6-tetrahydro-[2,3′]bipyridinyl]",concentration at 0.5 h,"female, 0.1 mg/kg, Anatabine 0.1 mg/kg, female, 0.5 hr (2nd 0.5 hr line)",0.0317 µg/mL
same,concentration at 1 h,[1],0.011 µg/mL
same,concentration at 2 h,[1],0.0067 µg/mL
same,concentration at 4 h,[1],0.004 µg/mL
same,concentration at 6 h,"female, 0.1 mg/kg, Anatabine 0.1 mg/kg, female, 6 hr (1st 6 hr line, N=3)",0.0037 µg/mL
same,concentration at 6 h,"female, 0.1 mg/kg, Anatabine 0.1 mg/kg, female, 6 hr (2nd 6 hr line, N=1)",0.003 µg/mL
same,concentration at 0.5 h,"female, 0.75 mg/kg, Anatabine 0.75 mg/kg, female, 0.5 hr (1st 0.5 hr line)",0.19 µg/mL
same,concentration at 0.5 h,"female, 0.75 mg/kg, Anatabine 0.75 mg/kg, female, 0.5 hr (2nd 0.5 hr line)",0.354 µg/mL
same,concentration at 1 h,[2],0.173 µg/mL
same,concentration at 2 h,[2],0.0997 µg/mL
same,concentration at 4 h,[2],0.0453 µg/mL
same,concentration at 6 h,"female, 0.75 mg/kg, Anatabine 0.75 mg/kg, female, 6 hr (1st 6 hr line)",0.0183 µg/mL
same,concentration at 6 h,"female, 0.75 mg/kg, Anatabine 0.75 mg/kg, female, 6 hr (2nd 6 hr line)",0.023 µg/mL
same,concentration at 8 h,[2],0.011 µg/mL
same,concentration at 0.5 h,"female, 1 mg/kg, Anatabine 1.0 mg/kg, female, 0.5 hr (1st 0.5 hr line)",0.237 µg/mL
same,concentration at 0.5 h,"female, 1 mg/kg, Anatabine 1.0 mg/kg, female, 0.5 hr (2nd 0.5 hr line)",0.368 µg/mL
same,concentration at 1 h,[3],0.229 µg/mL
same,concentration at 2 h,[3],0.164 µg/mL
same,concentration at 4 h,[3],0.0607 µg/mL
same,concentration at 6 h,"female, 1 mg/kg, Anatabine 1.0 mg/kg, female, 6 hr (1st 6 hr line)",0.0293 µg/mL
same,concentration at 6 h,"female, 1 mg/kg, Anatabine 1.0 mg/kg, female, 6 hr (2nd 6 hr line)",0.023 µg/mL
same,concentration at 8 h,[3],0.0177 µg/mL
same,AUC(0-inf),"female, 0.1 mg/kg",0.0379 ± 0.0159 µg·h/mL
same,MRT,"female, 0.1 mg/kg",2.55 ± 0.93 h
same,Vd,"female, 0.1 mg/kg",6.52 ± 0.66 L/kg
same,AUC(0-inf),"female, 0.75 mg/kg",0.544 ± 0.0627 µg·h/mL
same,Vd,"female, 0.75 mg/kg",3.19 ± 0.15 L/kg
same,half-life,"female, 0.75 mg/kg, anatabine 0.75 mg/kg single i.v., female rats",1.73 ± 0.03 h
same,AUC(0-inf),"female, 1 mg/kg",0.789 µg·h/mL
same,MRT,"female, 1 mg/kg",2.8 h
same,Vd,"female, 1 mg/kg",3.16 ± 0.15 L/kg
same,half-life,"female, 1 mg/kg, anatabine 1.0 mg/kg single i.v., female rats",1.84 h
same,concentration at 0.5 h,"male, 0.1 mg/kg, Anatabine 0.1 mg/kg, male, 0.5 hr (1st 0.5 hr line)",0.0153 µg/mL
same,concentration at 0.5 h,"male, 0.1 mg/kg, Anatabine 0.1 mg/kg, male, 0.5 hr (2nd 0.5 hr line)",0.0317 µg/mL
same,concentration at 1 h,[4],0.0123 µg/mL
same,concentration at 2 h,[4],0.0063 µg/mL
same,concentration at 4 h,[4],0.003 µg/mL
same,concentration at 6 h,"male, 0.1 mg/kg, Anatabine 0.1 mg/kg, male, 6 hr (2nd 6 hr line)",0.005 µg/mL
same,concentration at 0.5 h,"male, 0.75 mg/kg, Anatabine 0.75 mg/kg, male, 0.5 hr (1st 0.5 hr line)",0.181 µg/mL
same,concentration at 0.5 h,"male, 0.75 mg/kg, Anatabine 0.75 mg/kg, male, 0.5 hr (2nd 0.5 hr line)",0.302 µg/mL
same,concentration at 1 h,[5],0.152 µg/mL
same,concentration at 2 h,[5],0.0837 µg/mL
same,concentration at 4 h,[5],0.0347 µg/mL
same,concentration at 6 h,"male, 0.75 mg/kg, Anatabine 0.75 mg/kg, male, 6 hr (1st 6 hr line)",0.014 µg/mL
same,concentration at 6 h,"male, 0.75 mg/kg, Anatabine 0.75 mg/kg, male, 6 hr (2nd 6 hr line)",0.022 µg/mL
same,concentration at 8 h,[5],0.009 µg/mL
same,concentration at 0.5 h,"male, 1 mg/kg, Anatabine 1.0 mg/kg, male, 0.5 hr (1st 0.5 hr line)",0.272 µg/mL
same,concentration at 0.5 h,"male, 1 mg/kg, Anatabine 1.0 mg/kg, male, 0.5 hr (2nd 0.5 hr line)",0.399 µg/mL
same,concentration at 1 h,[6],0.234 µg/mL
same,concentration at 2 h,[6],0.123 µg/mL
same,concentration at 4 h,[6],0.0423 µg/mL
same,concentration at 6 h,"male, 1 mg/kg, Anatabine 1.0 mg/kg, male, 6 hr (1st 6 hr line)",0.018 µg/mL
same,concentration at 6 h,"male, 1 mg/kg, Anatabine 1.0 mg/kg, male, 6 hr (2nd 6 hr line)",0.027 µg/mL
same,concentration at 8 h,[6],0.0077 µg/mL
same,AUC(0-inf),"male, 0.1 mg/kg",0.032 ± 0.0077 µg·h/mL
same,MRT,"male, 0.1 mg/kg",2.03 ± 0.41 h
same,Vd,"male, 0.1 mg/kg",5.29 ± 0.49 L/kg
same,half-life,"male, 0.1 mg/kg, anatabine 0.1 mg/kg single i.v., male rats",1.25 ± 0.32 h
same,AUC(0-inf),"male, 0.75 mg/kg",0.464 ± 0.0362 µg·h/mL
same,MRT,"male, 0.75 mg/kg",2.5 ± 0.19 h
same,Vd,"male, 0.75 mg/kg",3.48 ± 0.18 L/kg
same,AUC(0-inf),"male, 1 mg/kg",0.631 µg·h/mL
same,MRT,"male, 1 mg/kg",2.18 h
same,Vd,"male, 1 mg/kg",3.01 ± 0.12 L/kg
same,half-life,"male, 1 mg/kg, anatabine 1.0 mg/kg single i.v., male rats",1.44 h
same,plasma concentration between approximately 6 and 8 hours,"nicotine 0.4 mg/kg, anatabine 0.1 mg/kg single i.v., rats",below the limits of quantitation
